Source: patent publication US20040156869A1, “2-substituted quinazolin-4-ylamine analogues” (Neurogen Corporation, priority 2002, published 2004)
pKi: −log10 of the molar value.

Biological target: human capsaicin receptor (VR1) (Homo sapiens, UniProt Q8NER1)
Assay: Capsaicin receptor binding assay ([3H]RTX competition, VR1-transfected HEK293 membranes)

human capsaicin receptor (VR1), sequence (Q8NER1 whole entry): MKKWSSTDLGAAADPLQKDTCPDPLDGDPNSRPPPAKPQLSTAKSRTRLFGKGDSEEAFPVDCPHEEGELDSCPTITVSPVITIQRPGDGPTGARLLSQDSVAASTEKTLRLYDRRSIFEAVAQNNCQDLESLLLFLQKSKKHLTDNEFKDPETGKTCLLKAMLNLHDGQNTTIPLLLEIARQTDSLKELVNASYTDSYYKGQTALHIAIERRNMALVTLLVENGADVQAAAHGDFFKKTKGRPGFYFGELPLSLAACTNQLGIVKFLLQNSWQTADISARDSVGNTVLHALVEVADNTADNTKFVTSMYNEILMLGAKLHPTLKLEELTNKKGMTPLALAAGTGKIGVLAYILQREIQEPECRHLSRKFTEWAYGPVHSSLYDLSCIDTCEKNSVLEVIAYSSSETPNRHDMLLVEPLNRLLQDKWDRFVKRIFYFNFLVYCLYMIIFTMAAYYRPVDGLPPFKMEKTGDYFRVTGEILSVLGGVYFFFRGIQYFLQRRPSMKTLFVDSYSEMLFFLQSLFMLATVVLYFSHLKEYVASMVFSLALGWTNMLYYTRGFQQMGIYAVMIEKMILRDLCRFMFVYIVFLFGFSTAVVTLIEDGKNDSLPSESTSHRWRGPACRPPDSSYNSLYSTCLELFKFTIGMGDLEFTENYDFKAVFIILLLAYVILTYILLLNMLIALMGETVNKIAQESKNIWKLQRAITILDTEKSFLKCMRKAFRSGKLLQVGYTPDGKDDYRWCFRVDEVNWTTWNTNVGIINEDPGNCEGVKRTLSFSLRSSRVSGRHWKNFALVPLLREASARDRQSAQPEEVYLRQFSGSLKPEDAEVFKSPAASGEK

SMILES	pKi
COCCc1nc(Nc2ccc(C(C)(C)C)cc2)c2ccc(-c3ncccc3C(F)(F)F)cc2n1 [Compound 47, (4-tert-Butyl-phenyl)-[2-(2-methoxy-ethyl)-7-(3-trifluoromethyl-pyridin-2-yl)-quinazolin-4-yl]-amine]	> 6.00
COCCc1nc(Nc2ccc(C(C)C)cc2)c2ccc(-c3ncccc3C(F)(F)F)cc2n1 [Compound 48, (4-Isopropyl-phenyl)-[2-(2-methoxy-ethyl)-7-(3-trifluoromethyl-pyridin-2-yl)-quinazolin-4-yl]-amine]	> 6.00
COCCc1nc(Nc2ccc(C(C)(C)C)nc2)c2ccc(-c3ncccc3C(F)(F)F)cc2n1 [Compound 49, (6-tert-Butyl-pyridin-3-yl)-[2-(2-methoxy-ethyl)-7-(3-trifluoromethyl-pyridin-2-yl)-quinazolin-4-yl]-amine]	> 6.00
COCc1nc(Nc2ccc(C(C)(C)C)cc2)c2ncc(-c3ncccc3C(F)(F)F)cc2n1 [Compound 50, (4-tert-Butyl-phenyl)-[2-methoxymethyl-7-(3-trifluoromethyl-pyridin-2-yl)-pyrido[3,2-d]pyrimidin-4-yl]-amine]	> 6.00
COCc1nc(Nc2ccc(C(C)C)cc2)c2ncc(-c3ncccc3C(F)(F)F)cc2n1 [Compound 51, (4-Isopropyl-phenyl)-[2-methoxymethyl-7-(3-trifluoromethyl-pyridin-2-yl)-pyrido[3,2-d]pyrimidin-4-yl]-amine]	> 6.00
CCc1ccc(Nc2nc(COC)nc3cc(-c4ncccc4C(F)(F)F)cnc23)cc1 [Compound 52, (4-Ethyl-phenyl)-[2-methoxymethyl-7-(3-trifluoromethyl-pyridin-2-yl)-pyrido[3,2-d]pyrimidin-4-yl]-amine]	> 6.00
COCc1nc(Nc2ccc(C(F)(F)F)nc2)c2ncc(-c3ncccc3C(F)(F)F)cc2n1 [Compound 53, [2-Methoxymethyl-7-(3-trifluoromethyl-pyridin-2-yl)-pyrido[3,2-d]pyrimidin-4-yl]-(6-trifluoromethyl-pyridin-3-yl)-amine]	> 6.00
COCc1nc(Nc2ccc(C(C)=O)cc2)c2ncc(-c3ncccc3C(F)(F)F)cc2n1 [Compound 54, 1-{4-[2-Methoxymethyl-7-(3-trifluoromethyl-pyridin-2-yl)-pyrido[3,2-d]pyrimidin-4-ylamino]-phenyl}-ethanone]	> 6.00

Second part, the compound after the results:

pKi	SMILES
> 6.00	COCc1nc(Nc2ccc(C#N)cc2)c2ncc(-c3ncccc3C(F)(F)F)cc2n1 [Compound 55, 4-[2-Methoxymethyl-7-(3-trifluoromethyl-pyridin-2-yl)-pyrido[3,2-d]pyrimidin-4-ylamino]-benzonitrile]
> 6.00	COCc1nc(Nc2ccc(C3CCCCC3)cc2)c2ncc(-c3ncccc3C(F)(F)F)cc2n1 [Compound 56, (4-Cyclohexyl-phenyl)-[2-methoxymethyl-7-(3-trifluoromethyl-pyridin-2-yl)-pyrido[3,2-d]pyrimidin-4-yl]-amine]
> 6.00	CCCC(=O)c1ccc(Nc2nc(COC)nc3cc(-c4ncccc4C(F)(F)F)cnc23)cc1 [Compound 57, 1-{4-[2-Methoxymethyl-7-(3-trifluoromethyl-pyridin-2-yl)-pyrido[3,2-d]pyrimidin-4-ylamino]-phenyl}-butan-1-one]
> 6.00	COCc1nc(Nc2ccc(C(C)(C)COC)cc2)c2ncc(-c3ncccc3C(F)(F)F)cc2n1 [Compound 58, [4-(2-Methoxy-1,1-dimethyl-ethyl)-phenyl]-[2-methoxymethyl-7-(3-trifluoromethyl-pyridin-2-yl)-pyrido[3,2-d]pyrimidin-4-yl]-amine]
> 6.00	COCc1nc(Nc2ccc(C(C)(C)C)cc2)c2ccc(-c3ncccc3Cl)nc2n1 [Compound 59, (4-tert-Butyl-phenyl)-[7-(3-chloro-pyridin-2-yl)-2-methoxymethyl-pyrido[2,3-d]pyrimidin-4-yl]-amine]
> 6.00	COCc1nc(Nc2ccc(C(C)C)cc2)c2ccc(-c3ncccc3Cl)nc2n1 [Compound 60, [7-(3-Chloro-pyridin-2-yl)-2-methoxymethyl-pyrido[2,3-d]pyrimidin-4-yl]-(4-isopropyl-phenyl)-amine]
